Test results as given in patent publication US20240158446A1, “CYCLIC COMPOUND HAVING SELECTIVE INHIBITORY ACTION ON KRAS OVER HRAS AND NRAS” (CHUGAI SEIYAKU KABUSHIKI KAISHA, priority 2021, published 2024).
*1 amine or outer side, *2 acyl side, *3 side chain or, on linkers, in order; H or OH if unused. Where a SMILES comes first, the peptide text is derived from it. Bridges are numbered along the chain shown (N, C = ends). [ ]: non-standard residue; d: D form. The star is where a group is joined. hPhe(3-Cl-4-CF3) = N[C@@H](CCc1ccc(C(F)(F)F)c(Cl)c1)C(=O)O; NPrPhe(4-CF3) = CCCN[C@@H](Cc1ccc(C(F)(F)F)cc1)C(=O)O; X6 = CCCN([C@@H](COCCC(C)C)C(=O)[*:2])[*:1]; X2 = CCCN([C@@H](COC1CCC1)C(=O)[*:2])[*:1]; X4 = CCCN([C@@H](CC(C)C)C(=O)[*:2])[*:1]; NMeGly(cPent) = CN[C@H](C(=O)O)C1CCCC1; NMeD = CN[C@@H](CC(=O)O)C(=O)O; NMeL = CN[C@@H](CC(C)C)C(=O)O; Morpholide = C1CN(*)CCO1; NMeA = CN[C@@H](C)C(=O)O; Aze = O=C(O)[C@@H]1CCN1; Ac4c = NC1(C(=O)O)CCC1; Sar = CNCC(=O)O

Columns and labels:
[1] = target: GDP-bound KRAS wild-type protein (Homo sapiens, UniProt P01116); test: Binding to KRAS by surface plasmon resonance (SPR), Single Cycle Kinetics; settings: SPR, Single Cycle Kinetics, GDP-bound KRAS wild-type protein; read-out: KRAS KD
Sequence of GDP-bound KRAS wild-type protein (P01116 whole entry): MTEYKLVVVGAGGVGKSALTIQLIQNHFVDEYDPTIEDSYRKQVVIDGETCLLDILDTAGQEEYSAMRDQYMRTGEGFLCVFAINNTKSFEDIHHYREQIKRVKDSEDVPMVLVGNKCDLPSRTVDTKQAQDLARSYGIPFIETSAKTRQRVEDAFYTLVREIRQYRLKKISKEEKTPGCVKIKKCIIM

[2] = target: GDP-bound NRAS wild-type protein (Homo sapiens, UniProt P01111); test: Binding to NRAS by surface plasmon resonance (SPR), Single Cycle Kinetics; settings: ratio of KD for GDP-bound NRAS wild-type protein to KD for KRAS, SPR
Sequence of GDP-bound NRAS wild-type protein (P01111 whole entry): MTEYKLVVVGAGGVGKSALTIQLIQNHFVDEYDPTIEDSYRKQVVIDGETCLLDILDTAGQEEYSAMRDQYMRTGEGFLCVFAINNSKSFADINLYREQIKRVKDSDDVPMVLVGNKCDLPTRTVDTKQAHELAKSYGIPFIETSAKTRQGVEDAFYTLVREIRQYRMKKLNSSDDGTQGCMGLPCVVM

[3] = target: GDP-bound HRAS wild-type protein (Homo sapiens, UniProt P01112); test: Binding to HRAS by surface plasmon resonance (SPR), Single Cycle Kinetics; settings: ratio of KD for GDP-bound HRAS wild-type protein to KD for KRAS, SPR
Sequence of GDP-bound HRAS wild-type protein (P01112 whole entry): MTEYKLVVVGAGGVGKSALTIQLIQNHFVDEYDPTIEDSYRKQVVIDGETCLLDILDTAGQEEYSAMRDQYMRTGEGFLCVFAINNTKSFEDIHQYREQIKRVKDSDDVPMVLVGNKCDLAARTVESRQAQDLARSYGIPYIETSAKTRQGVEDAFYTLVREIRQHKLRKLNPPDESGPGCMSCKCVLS

[4] = test system: human lung cancer strain NCI-H441; test: cells; settings: NCI-H441, 96 h, read-out: NCI-H441 IC50 (nM), NCI-H441 cell proliferation, 4 days, CellTiter-Glo;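 further: cell proliferation inhibition after four days measured by CellTiter-Glo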

| Compound | Kd [1] [nM] | NRAS/KRAS (KD ratio) [2] | HRAS/KRAS (KD ratio) [3] | IC50 [4] [nM] |
| --- | --- | --- | --- | --- |
| CC[C@H](C)[C@@H]1NC(=O)[C@H](CC)N(C)C(=O)C[C@@H](C(=O)N(C)C)N(C)C(=O)[C@H](C2CCCC2)N(C)C(=O)C2(CCCC2)N(C)C(=O)[C@@H]2C[C@@H](C)CN2C(=O)[C@H](CCc2cc(F)c(C(F)(F)F)c(F)c2)NC(=O)CN(C)C(=O)[C@H](Cc2ccc(C)cc2)N2CC/C=C\C[C@@H](C2=O)N(C)C(=O)[C@@H]2CCCN2C1=O [PP1814] | 0.27 | A (a compound having 10 or more and less than 20 is denoted as A) | A (a compound having 10 or more and less than 20 is denoted as A) | 26.2 |
| CCCN1C(=O)C[C@@H](C(=O)N2CCOCC2)N(C)C(=O)[C@H](C2CCCC2)N(C)C(=O)C2(CCC2)NC(=O)[C@@H]2CCCN2C(=O)[C@H](CCc2ccc(C(F)(F)F)c(Cl)c2)NC(=O)CN(C)C(=O)[C@H](Cc2ccc(C(F)(F)F)cc2)N(CCC)C(=O)CN(C)C(=O)CN(C)C(=O)[C@H](C(C)C)NC(=O)[C@@H]1CC(C)C [PP1815] ([X4]V[Sar][Sar][NPrPhe(4-CF3)][Sar][hPhe(3-Cl-4-CF3)]P[Ac4c][NMeGly(cPent)][NMeD]-Morpholide; lactam N-11) | 0.34 | B (a compound having 3 or more and less than 10 is denoted as B) | B (a compound having 3 or more and less than 10 is denoted as B) | 83 |
| CCCN1C(=O)CN(C)C(=O)CN(C)C(=O)[C@H]([C@@H](C)CC)NC(=O)[C@H](CC(C)C)N(C)C(=O)C[C@@H](C(=O)N2CCOCC2)N(C)C(=O)[C@H](C2CCCC2)N(C)C(=O)C2(CCC2)NC(=O)[C@@H]2CCCN2C(=O)[C@H](CCc2ccc(C(F)(F)F)c(Cl)c2)NC(=O)CN(C)C(=O)[C@@H]1COC1CCC1 [PP1816] ([NMeL]I[Sar][Sar][X2][Sar][hPhe(3-Cl-4-CF3)]P[Ac4c][NMeGly(cPent)][NMeD]-Morpholide; lactam N-11) | 1.2 | B (a compound having 3 or more and less than 10 is denoted as B) | C (A compound having a KD ratio of 0.1 or more and less than 3 is denoted as C) | 63.8 |
| CCCN1C(=O)CN(C)C(=O)CN(C)C(=O)[C@H]([C@@H](C)CC)NC(=O)[C@H](CC(C)C)N(C)C(=O)C[C@@H](C(=O)N2CCOCC2)N(C)C(=O)[C@H](C2CCCC2)N(C)C(=O)C2(CCC2)NC(=O)[C@@H]2CCCN2C(=O)[C@H](CCc2ccc(C(F)(F)F)c(Cl)c2)NC(=O)CN(C)C(=O)[C@@H]1COCCC(C)C [PP1817] ([NMeL]I[Sar][Sar][X6][Sar][hPhe(3-Cl-4-CF3)]P[Ac4c][NMeGly(cPent)][NMeD]-Morpholide; lactam N-11) | 0.47 | C (A compound having a KD ratio of 0.1 or more and less than 3 is denoted as C) | C (A compound having a KD ratio of 0.1 or more and less than 3 is denoted as C) | 20.4 |
| CCCN1C(=O)[C@@H]2CCN2C(=O)[C@H](C)N(C)C(=O)[C@H]([C@@H](C)CC)NC(=O)[C@H](CC(C)C)N(C)C(=O)C[C@@H](C(=O)N2CCOCC2)N(C)C(=O)[C@H](C2CCCC2)N(C)C(=O)C2(CCC2)NC(=O)[C@@H]2CCCN2C(=O)[C@H](CCc2ccc(C(F)(F)F)c(Cl)c2)NC(=O)CN(C)C(=O)[C@@H]1COC1CCC1 [PP1818] ([NMeL]I[NMeA][Aze][X2][Sar][hPhe(3-Cl-4-CF3)]P[Ac4c][NMeGly(cPent)][NMeD]-Morpholide; lactam N-11) | 0.9 | C (A compound having a KD ratio of 0.1 or more and less than 3 is denoted as C) | B (a compound having 3 or more and less than 10 is denoted as B) | 74.8 |
| CCO[C@@H]1C[C@H]2C(=O)NC3(CCC3)C(=O)N(C)[C@@H](C3CCCC3)C(=O)N(C)[C@H](C(=O)N(C)C)CC(=O)N(C)[C@@H](CC)C(=O)N[C@@H]([C@@H](C)CC)C(=O)N(C)CC(=O)N(C)[C@H]3C/C=C\CCN(C3=O)[C@@H](Cc3ccc(C(F)(F)F)cc3)C(=O)N(C)CC(=O)N[C@@H](CCc3cc(C)c(Cl)c(C)c3)C(=O)N2C1 [PP1821] | 0.63 | A (a compound having 10 or more and less than 20 is denoted as A) | A (a compound having 10 or more and less than 20 is denoted as A) | 105 |
| CC[C@H](C)[C@@H]1NC(=O)[C@H](CC)N(C)C(=O)C[C@@H](C(=O)N(C)C)N(C)C(=O)[C@H](C2CCCC2)N(C)C(=O)C2(CCC2)NC(=O)[C@@H]2CCCN2C(=O)[C@H](CCc2cc(C)c(Cl)c(C)c2)NC(=O)CN(C)C(=O)[C@H](Cc2ccc(C(F)(F)F)cc2)N2CC/C=C\C[C@@H](C2=O)N(C)C(=O)CN(C)C1=O [PP1822] | 1.1 | A (a compound having 10 or more and less than 20 is denoted as A) | B (a compound having 3 or more and less than 10 is denoted as B) | 107 |
| CCO[C@@H]1C[C@H]2C(=O)NC3(CCCC3)C(=O)N(C)[C@@H](C3CCCC3)C(=O)N(C)[C@H](C(=O)N(C)C)CC(=O)N(C)[C@@H](CC)C(=O)N[C@@H]([C@@H](C)CC)C(=O)N(C)CC(=O)N(C)[C@H]3C/C=C\CCN(C3=O)[C@@H](Cc3ccc(C(F)(F)F)cc3)C(=O)N(C)CC(=O)N[C@@H](CCc3cc(C)c(Cl)c(C)c3)C(=O)N2C1 [PP1823] | 1 | A (a compound having 10 or more and less than 20 is denoted as A) | A (a compound having 10 or more and less than 20 is denoted as A) | 55.9 |
| CCCN1C(=O)C[C@@H](C(=O)N(C)C)N(C)C(=O)[C@H](C2CCCC2)N(C)C(=O)C2(CCC2)NC(=O)[C@@H]2C[C@@H](OCC)CN2C(=O)[C@H](CCc2cc(F)c(C(F)(F)F)c(F)c2)NC(=O)CN(C)C(=O)[C@H](Cc2ccc(C(F)(F)F)cc2)N2CC/C=C\C[C@@H](C2=O)N(C)C(=O)CNC(=O)[C@H]([C@@H](C)CC)NC(=O)[C@@H]1CC(C)C [PP1826] | 0.32 | A (a compound having 10 or more and less than 20 is denoted as A) | A (a compound having 10 or more and less than 20 is denoted as A) | 17.6 |
| CC[C@H](C)[C@@H]1NC(=O)[C@H](CC)N(C)C(=O)C[C@@H](C(=O)N(C)C)N(C)C(=O)[C@H](C2CCCC2)N(C)C(=O)C2(CC(C)(C)C2)NC(=O)[C@@H]2C[C@H](C)CN2C(=O)[C@H](CCc2ccc(C(F)(F)F)c(OC)c2)NC(=O)CN(C)C(=O)[C@H](Cc2ccc(C)cc2)N2CC/C=C\C[C@@H](C2=O)N(C)C(=O)CN(C)C1=O [PP1836] | 0.1 | A (a compound having 10 or more and less than 20 is denoted as A) | B (a compound having 3 or more and less than 10 is denoted as B) | 10.7 |
| CC[C@H](C)[C@@H]1NC(=O)[C@H](CC(F)F)N(C)C(=O)C[C@@H](C(=O)N(C)CC)N(C)C(=O)[C@H](C2CCCC2)N(C)C(=O)C2(CC(C)(C)C2)NC(=O)[C@@H]2C[C@@H](C)CN2C(=O)[C@H](CCc2ccc(C(F)(F)F)c(Cl)c2)NC(=O)CN(C)C(=O)[C@H](Cc2ccc(C)cc2)N2CC/C=C\C[C@@H](C2=O)N(C)C(=O)CN(C)C1=O [PP1837] | 0.2 | A (a compound having 10 or more and less than 20 is denoted as A) | A (a compound having 10 or more and less than 20 is denoted as A) | 15.6 |
| CC[C@H](C)[C@@H]1NC(=O)[C@H](CC)N(C)C(=O)C[C@@H](C(=O)N(C)C)N(C)C(=O)[C@H](C2CCCC2)N(C)C(=O)C2(CC(C)(C)C2)NC(=O)[C@@H]2C[C@@H](C)CN2C(=O)[C@H](CCc2ccc(C(F)(F)F)c(OC)c2)NC(=O)CN(C)C(=O)[C@H](Cc2ccc(C)cc2)N2CC/C=C\C[C@@H](C2=O)N(C)C(=O)CN(C)C1=O [PP1838] | 0.1 | A (a compound having 10 or more and less than 20 is denoted as A) | A (a compound having 10 or more and less than 20 is denoted as A) | 20 |
| CC[C@H](C)[C@@H]1NC(=O)[C@H](CC)N(C)C(=O)C[C@@H](C(=O)N(CC)CC)N(C)C(=O)[C@H](C2CCCC2)N(C)C(=O)C2(CC(C)(C)C2)NC(=O)[C@@H]2C[C@H](C)CN2C(=O)[C@H](CCc2ccc(C(F)(F)F)c(OC)c2)NC(=O)CN(C)C(=O)[C@H](Cc2ccc(C)cc2)N2CC/C=C\C[C@@H](C2=O)N(C)C(=O)CN(C)C1=O [PP1839] | 0.31 | A (a compound having 10 or more and less than 20 is denoted as A) | B (a compound having 3 or more and less than 10 is denoted as B) | 24.3 |
| CC[C@H](C)[C@@H]1NC(=O)[C@H](CC)N(C)C(=O)C[C@@H](C(=O)N(CC)CC)N(C)C(=O)[C@H](C2CCCC2)N(C)C(=O)C2(CC(C)(C)C2)NC(=O)[C@@H]2C[C@@H](C)CN2C(=O)[C@H](CCc2ccc(C(F)(F)F)c(OC)c2)NC(=O)CN(C)C(=O)[C@H](Cc2ccc(C)cc2)N2CC/C=C\C[C@@H](C2=O)N(C)C(=O)CN(C)C1=O [PP1841] | 0.38 | AA (a compound having 20 or more is denoted as AA) | A (a compound having 10 or more and less than 20 is denoted as A) | 24.3 |
